Experimental data from ChEMBL document CHEMBL5365395, “Optimization of a series of novel, potent and selective Macrocyclic SYK inhibitors” (Bioorg Med Chem Lett, 2023).

test system: not listed separately; experiment: Volume of distribution at steady state in Han-Wistar rat at 1 umol/kg, iv; assay type: ADME; details: in vivo, dose 1 µmol/kg, read-out: Vdss

| Compound | Vd |
| --- | --- |
| Cc1nn2cc1CN(C)CCOCCNC(=O)c1nn(C)c3ccc(cc13)Nc1nccc-2n1 | 1.9 L/kg |
| Cc1nn2cc1CN(C)CCOCCNC(=O)c1nn(CCO)c3ccc(cc13)Nc1nccc-2n1 | 2.1 L/kg |

test system: not listed separately; experiment: Clearance in Han-Wistar rat at 1 umol/kg, iv; assay type: ADME; details: in vivo, dose 1 µmol/kg

| Compound | clearance |
| --- | --- |
| Cc1nn2cc1CN(C)CCOCCNC(=O)c1nn(C)c3ccc(cc13)Nc1nccc-2n1 | 16 mL/min/kg |
| Cc1nn2cc1CN(C)CCOCCNC(=O)c1nn(CCO)c3ccc(cc13)Nc1nccc-2n1 | 33 mL/min/kg |

test system: not listed separately; experiment: Hydrolytic stability of the compound at pH 1 assessed as half life; assay type: physicochemical; details: buffer

| Compound | half-life |
| --- | --- |
| Cc1nn2cc1CN(C)CCOCCNC(=O)c1nn(CCOC(=O)C(C)(C)C)c3ccc(cc13)Nc1nccc-2n1 | > 100 h |
| CC(=O)OCCn1nc2c3cc(ccc31)Nc1nccc(n1)-n1cc(c(C)n1)CN(C)CCOCCNC2=O | 0.7 h |
| CC(=O)OC(C)(C)Cn1nc2c3cc(ccc31)Nc1nccc(n1)-n1cc(c(C)n1)CN(C)CCOCCNC2=O | 6.5 h |

test system: not listed separately; experiment: Lipophilicity, logD of the compound in buffer/octanol volume ratio of 100:1 at pH 7.4 by shake flask method; assay type: physicochemical; details: not given

| Compound | logD |
| --- | --- |
| Cc1nn2cc1CN(C)CCOCCNC(=O)c1nn(C3COC3)c3ccc(cc13)Nc1nccc-2n1 | 1.7 |
| Cc1nn2cc1CN(C)N1CCC(CCNC(=O)c3nn(C)c4ccc(cc34)Nc3nccc-2n3)CC1 | 2.3 |
| Cc1nn2cc1CN(C)CCOCCNC(=O)c1nn(CCOC(=O)C(C)(C)C)c3ccc(cc13)Nc1nccc-2n1 | 3.1 |
| CC(=O)OCCn1nc2c3cc(ccc31)Nc1nccc(n1)-n1cc(c(C)n1)CN(C)CCOCCNC2=O | 1.9 |
| Cc1nn2cc1CN(C)CCOCCNC(=O)c1nn(C)c3ccc(cc13)Nc1nccc-2n1 | 1.8 |
| CC(=O)OC(C)(C)Cn1nc2c3cc(ccc31)Nc1nccc(n1)-n1cc(c(C)n1)CN(C)CCOCCNC2=O | 2.5 |
| Cc1nn2cc1CN(C)CCOCCNC(=O)c1nn(CCO)c3ccc(cc13)Nc1nccc-2n1 | 1.2 |

test system: not listed separately; experiment: Hydrolytic stability of the compound at pH 7.4 assessed as half life; assay type: physicochemical; details: buffer

| Compound | half-life |
| --- | --- |
| Cc1nn2cc1CN(C)CCOCCNC(=O)c1nn(CCOC(=O)C(C)(C)C)c3ccc(cc13)Nc1nccc-2n1 | 30 h |
| CC(=O)OCCn1nc2c3cc(ccc31)Nc1nccc(n1)-n1cc(c(C)n1)CN(C)CCOCCNC2=O | 6.8 h |
| CC(=O)OC(C)(C)Cn1nc2c3cc(ccc31)Nc1nccc(n1)-n1cc(c(C)n1)CN(C)CCOCCNC2=O | 72 h |

test system: not listed separately; experiment: Volume of distribution at steady state in Beagle Dog at 1 umol/kg, iv; assay type: ADME, Canis lupus familiaris; details: in vivo, dose 1 µmol/kg, read-out: Vdss

| Compound | Vd |
| --- | --- |
| Cc1nn2cc1CN(C)CCOCCNC(=O)c1nn(CCO)c3ccc(cc13)Nc1nccc-2n1 | 1.9 L/kg |

molecular target: Voltage-gated inwardly rectifying potassium channel KCNH2 (Homo sapiens, UniProt Q12809); experiment: Inhibition of human ERG by patch clamp assay; assay type: toxicity; details: not given
Sequence (Q12809 whole entry): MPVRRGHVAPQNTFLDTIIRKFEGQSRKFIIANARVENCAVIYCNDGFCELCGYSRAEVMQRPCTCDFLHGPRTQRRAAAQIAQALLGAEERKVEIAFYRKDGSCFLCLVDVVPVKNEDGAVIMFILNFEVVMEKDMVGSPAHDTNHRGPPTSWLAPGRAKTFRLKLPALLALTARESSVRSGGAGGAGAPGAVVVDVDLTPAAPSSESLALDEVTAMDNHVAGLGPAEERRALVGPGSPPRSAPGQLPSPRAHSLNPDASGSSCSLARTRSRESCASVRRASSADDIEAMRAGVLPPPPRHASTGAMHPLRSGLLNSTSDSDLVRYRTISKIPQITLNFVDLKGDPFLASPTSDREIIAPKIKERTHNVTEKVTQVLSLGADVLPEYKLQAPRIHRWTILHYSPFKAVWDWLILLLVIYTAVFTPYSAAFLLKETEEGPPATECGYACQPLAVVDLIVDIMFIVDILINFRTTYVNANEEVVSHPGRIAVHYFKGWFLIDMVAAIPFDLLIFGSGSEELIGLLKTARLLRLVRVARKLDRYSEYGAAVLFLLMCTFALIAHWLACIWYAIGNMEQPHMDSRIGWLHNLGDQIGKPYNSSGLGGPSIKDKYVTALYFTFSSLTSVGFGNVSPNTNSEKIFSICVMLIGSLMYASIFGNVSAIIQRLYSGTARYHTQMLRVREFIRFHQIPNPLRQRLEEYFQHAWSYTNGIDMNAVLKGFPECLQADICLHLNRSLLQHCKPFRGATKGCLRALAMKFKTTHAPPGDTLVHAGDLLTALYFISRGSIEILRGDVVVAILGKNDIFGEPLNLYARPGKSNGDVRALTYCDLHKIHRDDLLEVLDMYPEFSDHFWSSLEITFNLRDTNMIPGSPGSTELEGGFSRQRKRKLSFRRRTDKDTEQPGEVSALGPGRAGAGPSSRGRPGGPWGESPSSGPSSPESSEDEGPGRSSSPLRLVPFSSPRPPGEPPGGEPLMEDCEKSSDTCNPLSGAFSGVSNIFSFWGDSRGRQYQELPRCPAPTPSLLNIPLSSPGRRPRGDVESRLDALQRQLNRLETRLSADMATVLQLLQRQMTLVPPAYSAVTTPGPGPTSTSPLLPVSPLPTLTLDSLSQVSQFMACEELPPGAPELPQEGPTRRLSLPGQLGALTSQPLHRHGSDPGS

| Compound | IC50 |
| --- | --- |
| Cc1nn2cc1CN(C)CCOCCNC(=O)c1nn(C3COC3)c3ccc(cc13)Nc1nccc-2n1 | 3700 nM |
| Cc1nn2cc1CN(C)CCOCCNC(=O)c1nn(CCOC(=O)C(C)(C)C)c3ccc(cc13)Nc1nccc-2n1 | 1100 nM |
| CC(=O)OCCn1nc2c3cc(ccc31)Nc1nccc(n1)-n1cc(c(C)n1)CN(C)CCOCCNC2=O | 2100 nM |
| Cc1nn2cc1CN(C)CCOCCNC(=O)c1nn(C)c3ccc(cc13)Nc1nccc-2n1 | 850 nM |
| CC(=O)OC(C)(C)Cn1nc2c3cc(ccc31)Nc1nccc(n1)-n1cc(c(C)n1)CN(C)CCOCCNC2=O | 1200 nM |
| Cc1nn2cc1CN(C)CCOCCNC(=O)c1nn(CCO)c3ccc(cc13)Nc1nccc-2n1 | > 39000 nM |

test system: not listed separately; experiment: Plasma protein binding in Han-Wistar rat assessed as fraction unbound; assay type: ADME, cell-free; details: not given

| Compound | Fu |
| --- | --- |
| Cc1nn2cc1CN(C)CCOCCNC(=O)c1nn(C)c3ccc(cc13)Nc1nccc-2n1 | 7% |
| Cc1nn2cc1CN(C)CCOCCNC(=O)c1nn(CCO)c3ccc(cc13)Nc1nccc-2n1 | 16% |

test system: not listed separately; experiment: Intrinsic clearance in Beagle Dog hepatocytes; assay type: ADME, cell-based, Canis lupus familiaris, Hepatocyte; details: not given

| Compound | CLH |
| --- | --- |
| Cc1nn2cc1CN(C)CCOCCNC(=O)c1nn(CCO)c3ccc(cc13)Nc1nccc-2n1 | < 1 µL/min/1e6 cells |

test system: not listed separately; experiment: Intrinsic clearance in Han-Wistar rat hepatocytes; assay type: ADME, cell-based, Hepatocyte; details: not given

| Compound | CLH |
| --- | --- |
| Cc1nn2cc1CN(C)CCOCCNC(=O)c1nn(C)c3ccc(cc13)Nc1nccc-2n1 | 8.1 µL/min/1e6 cells |
| Cc1nn2cc1CN(C)CCOCCNC(=O)c1nn(CCO)c3ccc(cc13)Nc1nccc-2n1 | < 1.5 µL/min/1e6 cells |

test system: not listed separately; experiment: Intrinsic Clearance in human liver microsome; assay type: ADME; details: liver microsomes, read-out: CLH

| Compound | microsomal CLint |
| --- | --- |
| Cc1nn2cc1CN(C)CCOCCNC(=O)c1nn(C3COC3)c3ccc(cc13)Nc1nccc-2n1 | 28 µL/min/mg |
| Cc1nn2cc1CN(C)N1CCC(CCNC(=O)c3nn(C)c4ccc(cc34)Nc3nccc-2n3)CC1 | 76 µL/min/mg |
| Cc1nn2cc1CN(C)CCOCCNC(=O)c1nn(CCOC(=O)C(C)(C)C)c3ccc(cc13)Nc1nccc-2n1 | > 300 µL/min/mg |
| CC(=O)OCCn1nc2c3cc(ccc31)Nc1nccc(n1)-n1cc(c(C)n1)CN(C)CCOCCNC2=O | > 300 µL/min/mg |
| Cc1nn2cc1CN(C)CCOCCNC(=O)c1nn(C)c3ccc(cc13)Nc1nccc-2n1 | 25 µL/min/mg |
| CC(=O)OC(C)(C)Cn1nc2c3cc(ccc31)Nc1nccc(n1)-n1cc(c(C)n1)CN(C)CCOCCNC2=O | 229 µL/min/mg |
| Cc1nn2cc1CN(C)CCOCCNC(=O)c1nn(CCO)c3ccc(cc13)Nc1nccc-2n1 | 23 µL/min/mg |

test system: not listed separately; experiment: Clearance in Beagle Dog at 1 umol/kg, iv; assay type: ADME, Canis lupus familiaris; details: in vivo, dose 1 µmol/kg

| Compound | clearance |
| --- | --- |
| Cc1nn2cc1CN(C)CCOCCNC(=O)c1nn(CCO)c3ccc(cc13)Nc1nccc-2n1 | 9 mL/min/kg |

molecular target: Tyrosine-protein kinase SYK (Homo sapiens, UniProt P43405); experiment: Inhibition of full length recombinant human SYK; details: not given

| Compound | IC50 |
| --- | --- |
| Cc1nn2cc1CN(C)CCOCCNC(=O)c1nn(C)c3ccc(cc13)Nc1nccc-2n1 | 0.13 nM |

test system: not listed separately; experiment: Oral bioavailability in Han-Wistar rat at 2 umol/kg; assay type: ADME, organism-based; details: in vivo, at 2 µmol/kg

| Compound | bioavailability |
| --- | --- |
| Cc1nn2cc1CN(C)CCOCCNC(=O)c1nn(C)c3ccc(cc13)Nc1nccc-2n1 | 64% |
| Cc1nn2cc1CN(C)CCOCCNC(=O)c1nn(CCO)c3ccc(cc13)Nc1nccc-2n1 | 0.9% |

molecular target: Mitogen-activated protein kinase kinase kinase 9 (Homo sapiens) (UniProt P80192); experiment: Inhibition of MAP3K9 (unknown origin) at 0.1 uM relative to control; details: not given
Sequence (P80192 whole entry, looked up): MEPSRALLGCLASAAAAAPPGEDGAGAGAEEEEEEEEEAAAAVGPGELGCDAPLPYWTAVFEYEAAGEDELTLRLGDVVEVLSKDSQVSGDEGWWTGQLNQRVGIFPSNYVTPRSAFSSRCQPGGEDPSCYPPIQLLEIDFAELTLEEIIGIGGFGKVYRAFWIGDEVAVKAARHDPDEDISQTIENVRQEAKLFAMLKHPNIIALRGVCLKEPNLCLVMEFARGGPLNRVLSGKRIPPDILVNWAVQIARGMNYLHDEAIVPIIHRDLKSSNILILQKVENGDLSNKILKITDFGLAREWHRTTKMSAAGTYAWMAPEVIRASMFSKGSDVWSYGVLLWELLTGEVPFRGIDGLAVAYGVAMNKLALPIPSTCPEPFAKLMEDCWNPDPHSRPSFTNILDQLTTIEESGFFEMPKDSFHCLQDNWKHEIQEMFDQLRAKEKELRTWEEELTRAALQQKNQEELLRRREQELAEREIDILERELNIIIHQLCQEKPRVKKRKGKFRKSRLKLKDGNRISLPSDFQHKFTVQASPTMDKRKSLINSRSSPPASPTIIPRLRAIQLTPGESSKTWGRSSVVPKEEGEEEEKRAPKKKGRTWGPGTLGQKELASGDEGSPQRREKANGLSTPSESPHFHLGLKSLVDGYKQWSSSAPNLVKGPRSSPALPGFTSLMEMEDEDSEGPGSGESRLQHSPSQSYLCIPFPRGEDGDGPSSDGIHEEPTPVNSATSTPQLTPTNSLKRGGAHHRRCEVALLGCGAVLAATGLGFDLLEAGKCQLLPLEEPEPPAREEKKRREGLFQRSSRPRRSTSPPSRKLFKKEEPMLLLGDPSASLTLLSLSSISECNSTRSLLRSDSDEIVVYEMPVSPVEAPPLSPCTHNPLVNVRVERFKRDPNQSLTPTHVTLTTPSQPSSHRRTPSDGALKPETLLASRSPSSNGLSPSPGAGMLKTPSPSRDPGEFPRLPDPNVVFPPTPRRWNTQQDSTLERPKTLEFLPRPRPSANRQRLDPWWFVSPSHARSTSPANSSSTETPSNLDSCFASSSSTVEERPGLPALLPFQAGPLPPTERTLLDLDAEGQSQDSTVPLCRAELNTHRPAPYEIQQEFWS

| Compound | inhibition |
| --- | --- |
| Cc1nn2cc1CN(C)CCOCCNC(=O)c1nn(C)c3ccc(cc13)Nc1nccc-2n1 | > 70% |

test system: SUD4; experiment: Cytotoxicity against human SU-DHL-4 cells assessed as reduction in cell viability; details: not given

| Compound | IC50 |
| --- | --- |
| Cc1nn2cc1CN(C)CCOCCNC(=O)c1nn(C3COC3)c3ccc(cc13)Nc1nccc-2n1 | 550 nM |
| Cc1nn2cc1CN(C)N1CCC(CCNC(=O)c3nn(C)c4ccc(cc34)Nc3nccc-2n3)CC1 | 350 nM |
| Cc1nn2cc1CN(C)CCOCCNC(=O)c1nn(CCOC(=O)C(C)(C)C)c3ccc(cc13)Nc1nccc-2n1 | 1000 nM |
| CC(=O)OCCn1nc2c3cc(ccc31)Nc1nccc(n1)-n1cc(c(C)n1)CN(C)CCOCCNC2=O | 990 nM |
| Cc1nn2cc1CN(C)CCOCCNC(=O)c1nn(C)c3ccc(cc13)Nc1nccc-2n1 | 570 nM |
| CC(=O)OC(C)(C)Cn1nc2c3cc(ccc31)Nc1nccc(n1)-n1cc(c(C)n1)CN(C)CCOCCNC2=O | 850 nM |
| Cc1nn2cc1CN(C)CCOCCNC(=O)c1nn(CCO)c3ccc(cc13)Nc1nccc-2n1 | 280 nM |

test system: not listed separately; experiment: Oral bioavailability in Beagle Dog at 2 umol/kg; assay type: ADME, organism-based, Canis lupus familiaris; details: in vivo, at 2 µmol/kg

| Compound | bioavailability |
| --- | --- |
| Cc1nn2cc1CN(C)CCOCCNC(=O)c1nn(CCO)c3ccc(cc13)Nc1nccc-2n1 | 0.38% |

test system: not listed separately; experiment: Hydrolytic stability of the compound at pH 10 assessed as half life; assay type: physicochemical; details: buffer

| Compound | half-life |
| --- | --- |
| Cc1nn2cc1CN(C)CCOCCNC(=O)c1nn(CCOC(=O)C(C)(C)C)c3ccc(cc13)Nc1nccc-2n1 | 5 h |
| CC(=O)OCCn1nc2c3cc(ccc31)Nc1nccc(n1)-n1cc(c(C)n1)CN(C)CCOCCNC2=O | < 0.5 h |
| CC(=O)OC(C)(C)Cn1nc2c3cc(ccc31)Nc1nccc(n1)-n1cc(c(C)n1)CN(C)CCOCCNC2=O | 2.9 h |

test system: not listed separately; experiment: Apparent permeability across apical to basolateral side in human Caco-2 cells at pH 6.5 after 45 to 120 mins by LC-MS/MS analysis; assay type: ADME, cell-based; details: Caco-2, pH 6.5, time 45-120 min

| Compound | Papp A→B |
| --- | --- |
| Cc1nn2cc1CN(C)CCOCCNC(=O)c1nn(C3COC3)c3ccc(cc13)Nc1nccc-2n1 | 3.7 ×10⁻⁶ cm/s |
| Cc1nn2cc1CN(C)CCOCCNC(=O)c1nn(CCOC(=O)C(C)(C)C)c3ccc(cc13)Nc1nccc-2n1 | 8 ×10⁻⁶ cm/s |
| CC(=O)OCCn1nc2c3cc(ccc31)Nc1nccc(n1)-n1cc(c(C)n1)CN(C)CCOCCNC2=O | 3.6 ×10⁻⁶ cm/s |
| Cc1nn2cc1CN(C)CCOCCNC(=O)c1nn(C)c3ccc(cc13)Nc1nccc-2n1 | 19 ×10⁻⁶ cm/s |
| CC(=O)OC(C)(C)Cn1nc2c3cc(ccc31)Nc1nccc(n1)-n1cc(c(C)n1)CN(C)CCOCCNC2=O | 13 ×10⁻⁶ cm/s |
| Cc1nn2cc1CN(C)CCOCCNC(=O)c1nn(CCO)c3ccc(cc13)Nc1nccc-2n1 | 1.12 ×10⁻⁶ cm/s |

test system: not listed separately; experiment: Intrinsic clearance in rat hepatocytes assessed per million cells; assay type: ADME, cell-based, Hepatocyte; details: read-out: CLH

| Compound | hepatocyte CLint |
| --- | --- |
| Cc1nn2cc1CN(C)CCOCCNC(=O)c1nn(C3COC3)c3ccc(cc13)Nc1nccc-2n1 | 4.6 µL/min/1e6 cells |
| Cc1nn2cc1CN(C)N1CCC(CCNC(=O)c3nn(C)c4ccc(cc34)Nc3nccc-2n3)CC1 | 15 µL/min/1e6 cells |
| Cc1nn2cc1CN(C)CCOCCNC(=O)c1nn(CCOC(=O)C(C)(C)C)c3ccc(cc13)Nc1nccc-2n1 | 163 µL/min/1e6 cells |
| CC(=O)OCCn1nc2c3cc(ccc31)Nc1nccc(n1)-n1cc(c(C)n1)CN(C)CCOCCNC2=O | 198 µL/min/1e6 cells |
| Cc1nn2cc1CN(C)CCOCCNC(=O)c1nn(C)c3ccc(cc13)Nc1nccc-2n1 | 8.1 µL/min/1e6 cells |
| CC(=O)OC(C)(C)Cn1nc2c3cc(ccc31)Nc1nccc(n1)-n1cc(c(C)n1)CN(C)CCOCCNC2=O | 63 µL/min/1e6 cells |
| Cc1nn2cc1CN(C)CCOCCNC(=O)c1nn(CCO)c3ccc(cc13)Nc1nccc-2n1 | < 1.6 µL/min/1e6 cells |
